Where only a bound is given, the exact number is not on record here.

This passage reports IC50 results from PMC12430362, “Comparative Study of Ni(II) Complexes with Dithiocarbazate- and Thiosemicarbazone-Based Ligands: Synthesis, Crystal Structures, and Anticancer Activity” (Molecules, 2025).

Common to all, as to format: cell-based, human
The test system of test [1] is cisplatin-resistant ovarian cancer (A2780cis) cell line. The test is described as follows: MTT cytotoxicity assay, A2780cis. The settings on record: 48 h, ± SD, 1.56-200 µM. The protocol: (§1) DMSO solutions (10^−3 M) of the complexes (1–4) were subjected to molar conductance measurements at room temperature over 48 h, and the observed values are presented in Table S8. […] A comparative cytotoxicity assay explored the differences between nickel(II) complexes derived from thiosemicarbazone and dithiocarbazate ligands. Additionally, we investigated the influence of the coligands triphenylphosphine and pyridine in the complexes. The effectiveness of the compounds in inhibiting cell viability was concentration- and time-dependent. The analysis involved varying concentrations between 1.56 and 200 µM over 48 h using an MTT assay, with untreated cells serving as the control. Table 5 presents the IC50 values for the free ligands, synthesized complexes, and cisplatin, which served as reference compounds in this study.
(§2) The cytotoxic activity of the synthesized compounds was evaluated against human cell lines, including breast cancer (MCF–7), cisplatin-resistant ovarian cancer (A2780cis), lung cancer (A549), and nontumor lung cells (MRC–5). The A549 and MRC-5 cell lines were cultured in Dulbecco’s Modified Eagle’s Medium (DMEM), while the MCF-7 and A2780cis cell lines were cultured in Roswell Park Memorial Institute (RPMI–1640). Both cultures were supplemented with 10% fetal bovine serum (FBS), penicillin (100 IU/mL), streptomycin ([…]), and L-glutamine (2 mM). The cells were grown as monolayers in disposable 25 cm^2 flasks and incubated at 37 °C in a humidified atmosphere containing 5% CO2.
(§3) The cytotoxicity activity of the compounds was assessed using a colorimetric MTT (3-(4,5-dimethylthiazol-2-yl)-2,5-diphenyltetrazolium bromide) assay. The cells were trypsinized, counted, and adjusted to the appropriate concentration and were seeded into 96-well plates at a density of 1.5 × 10^4 cells/well. […] The absorbance was measured at 570 nm using a Varioskan LUX Multimode Microplate Reader (VL000D0, Waltham, MA 02451, USA). […] The half-maximal inhibitory concentration (IC50) values were determined from dose–response curves using GraphPad Prism version 8 software.

Test [2] concerns breast cancer (MCF-7) cell line. As to the kind of experiment: MTT cytotoxicity assay, MCF-7. Particulars: ± SD, 1.56-200 µM. The protocol: as §1, §2, §3
Background: Formazan colour is commonly taken as a measure of viable cells.

Test [3] deals with lung cancer (A549) cell line. The test is described as follows: MTT cytotoxicity assay, A549. Particulars: ± SD, 1.56-200 µM. As to the method: as §1, §2, §3
The test system of test [4] is nontumoral lung (MRC-5) cell line. The test is described as follows: MTT cytotoxicity assay, MRC-5. The settings on record: ± SD, 1.56-200 µM, nontumoral cells. The protocol: as §1, §2, §3

By IC50 is commonly meant the concentration that gives 50% inhibition. High values mean lower potency, low ones higher potency. As for `N.N.[Cl][Pt][Cl]` [Cisplatin, cisplatin, reference compound], the IC50 in test [1] was found to be 37 µM; in test [2] (48 h) it was 14 µM; in test [3] (48 h), 11.5 µM; in test [4] (48 h), 29.1 µM.

`O=C(C/C(=N/NC(=S)Nc1ccccc1)C(F)(F)F)c1cccs1` [H2L^1, thenoyltrifluoroacetone–4–phenyl–3–thiosemicarbazone]: the IC50 in test [1] (Homo sapiens, A2780cis) is 42.8 µM; in test [2] (Homo sapiens, MCF7, 48 h), above 100 µM; in test [3] (Homo sapiens, A549, 48 h), 51.4 µM; in test [4] (Homo sapiens, MRC5, 48 h), above 100 µM.

For the compound `O=C(C/C(=N/NC(=S)SCc1ccccc1)C(F)(F)F)c1cccs1` [H2L^2, thenoyltrifluoroacetone–S–benzyldithiocarbazate], the IC50 is 78.9 µM in test [1] (Homo sapiens, A2780cis); above 100 µM in test [2] (Homo sapiens, MCF7, 48 h); above 100 µM in test [3] (Homo sapiens, A549, 48 h); above 100 µM in test [4] (Homo sapiens, MRC5, 48 h).
